In US20260176320A1, “MODULATORS OF G-PROTEIN COUPLED RECEPTORS” (priority 2018, published 2026):
Read-outs that look alike come from different tables or passages of the source.

Key:
Type in all cases: cell-based
GLP-1R [1] = target: T1, GLP-1R (Homo sapiens, UniProt P43220); assay: PathHunter β-arrestin assay
Procedure, shortened: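 β-Arrestin recruitment measured by PathHunter enzyme-fragment luminescence, read after 3 h dark incubation at room temperature with detection solution. Beforehand, agonist in a 22-point 2-fold series was applied in duplicate for 90 min at 37 °C to 5,000 cells/well in BSA-containing (0.2%) medium.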

GIP-R = target: T2, GIP-R (Homo sapiens, UniProt P48546); assay: HitHunter cAMP assay (GIP-R); settings: cAMP; for Emax: read-out: (Emax) GIP-R
T2 sequence (P48546 22-466): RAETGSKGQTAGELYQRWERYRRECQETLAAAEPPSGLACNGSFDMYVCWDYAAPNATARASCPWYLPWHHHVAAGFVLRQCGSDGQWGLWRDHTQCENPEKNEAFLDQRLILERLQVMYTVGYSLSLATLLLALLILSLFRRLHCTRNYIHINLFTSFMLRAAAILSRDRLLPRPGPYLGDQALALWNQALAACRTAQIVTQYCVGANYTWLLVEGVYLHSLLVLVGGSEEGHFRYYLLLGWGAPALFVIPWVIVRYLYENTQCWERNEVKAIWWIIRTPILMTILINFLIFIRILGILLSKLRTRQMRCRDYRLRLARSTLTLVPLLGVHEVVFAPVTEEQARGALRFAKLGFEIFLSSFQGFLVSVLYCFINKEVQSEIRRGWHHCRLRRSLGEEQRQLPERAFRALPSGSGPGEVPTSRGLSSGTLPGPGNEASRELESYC
Procedure, shortened: (§1)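 cAMP accumulation read by luminescent HitHunter immunocompetition after 30 min room-temperature agonist stimulation. Agonists tested as 22-point twofold dilutions, in duplicate, on 10,000 cells/well in HBSS containing 625 μM IBMX, 10 mM HEPES and 0.2% BSA.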

GLP-1R [2] = target: T1, GLP-1R; assay: HitHunter cAMP assay (GLP-1R); settings: cAMP; for Emax: read-out: (Emax) GLP-1R
Procedure, shortened: as §1

[3] = PathHunter β-arrestin assay, read-out: β-arrestin activity EC50
[4] = Table 3, read-out: EC50 GIP-R/nM
[5] = Table 3A, read-out: EC50 GIP-R/nM
[6] = Table 3, read-out: EC50 GLP-1R/nM
[7] = Table 3A, read-out: EC50 GLP-1R/nM

T1 sequence (P43220 24-463): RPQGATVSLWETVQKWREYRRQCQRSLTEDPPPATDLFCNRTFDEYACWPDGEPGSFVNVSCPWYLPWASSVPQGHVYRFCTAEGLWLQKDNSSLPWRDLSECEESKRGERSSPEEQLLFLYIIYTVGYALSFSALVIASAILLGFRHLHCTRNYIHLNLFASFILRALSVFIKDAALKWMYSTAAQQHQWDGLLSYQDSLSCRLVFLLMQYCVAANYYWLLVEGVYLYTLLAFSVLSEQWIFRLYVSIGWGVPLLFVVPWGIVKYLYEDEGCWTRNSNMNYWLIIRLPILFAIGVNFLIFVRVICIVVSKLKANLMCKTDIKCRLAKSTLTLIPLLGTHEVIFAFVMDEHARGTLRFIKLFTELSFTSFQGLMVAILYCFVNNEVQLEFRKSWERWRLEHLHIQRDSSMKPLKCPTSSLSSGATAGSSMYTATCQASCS

SMILES | EC50 (GLP-1R [1]; [3]) [nM] | Emax (GIP-R; Table 3) [%] | EC50 (GIP-R; [4]) [nM] | Emax (GIP-R; Table 3A) [%] | EC50 (GIP-R; [5]) [nM] | Emax (GLP-1R [2]; Table 3) [%] | EC50 (GLP-1R [2]; [6]) [nM] | Emax (GLP-1R [2]; Table 3A) [%] | EC50 (GLP-1R [2]; [7]) [nM] | Emax at 1 µM (GIP-R; read-out: (Emax) GIP-R at 1 μM, Table 3) [%] | Emax at 1 µM (GIP-R; read-out: (Emax) GIP-R at 1 μM, Table 3A) [%] | EC50 (GLP-1R [1]) [nM] | EC50 (GIP-R; EC50 GIP-R/nM, Table 3) [nM] | EC50 (GIP-R; read-out: EC50 GIP-R/nM, Table 3A) [nM] | EC50 (GLP-1R [2]; EC50 GLP-1R/nM, Table 3) [nM] | EC50 (GLP-1R [2]; EC50 GLP-1R/nM, Table 3A) [nM] | EC50 (GIP-R; EC50 GIP-R/nM, Table 3A) [nM]
CCCCCCCCCCCCCCCC(=O)N[C@@H](CCC(=O)NCCCC[C@H](NC(=O)[C@H](CO)NC(=O)[C@@H]1CCCN1C(=O)[C@@H]1CCCN1C(=O)[C@@H]1CCCN1C(=O)[C@H](C)NC(=O)CNC(=O)[C@H](CO)NC(=O)[C@H](CO)NC(=O)[C@@H]1CCCN1C(=O)CNC(=O)CNC(=O)[C@H](C)NC(=O)[C@H](CC(C)C)NC(=O)[C@H](CC(C)C)NC(=O)[C@H](Cc1c[nH]c2ccccc12)NC(=O)[C@H](CC(N)=O)NC(=O)[C@@H](NC(=O)[C@H](Cc1ccccc1)NC(=O)[C@H](CCC(=O)O)NC(=O)C(C)(C)NC(=O)[C@H](C)NC(=O)[C@H](C)NC(=O)[C@H](CCC(N)=O)NC(=O)[C@H](CCCCN)NC(=O)[C@H](CC(=O)O)NC(=O)[C@H](CC(C)C)NC(=O)[C@H](Cc1ccc(O)cc1)NC(=O)[C@@H](NC(=O)[C@H](CO)NC(=O)[C@H](Cc1ccc(O)cc1)NC(=O)[C@H](CC(=O)O)NC(=O)[C@H](CO)NC(=O)[C@@H](NC(=O)[C@H](Cc1ccccc1)NC(=O)[C@@H](NC(=O)CNC(=O)[C@H](CCC(=O)O)NC(=O)CCC(=O)NCCN1CCCCC1=O)[C@@H](C)O)[C@@H](C)O)[C@@H](C)CC)C(C)C)C(N)=O)C(=O)O [Compound 26] | > 1000 | 64 | 1 to 10 | 64 | 1 to 10 | 95 | 0.1 to 1 | 95 | 0.1 to 1 | – | – | – | – | – | – | – | –
CCCCCCCCCCCCCCCC(=O)N[C@@H](CCC(=O)NCCCC[C@H](NC(=O)[C@H](CO)NC(=O)[C@@H]1CCCN1C(=O)[C@@H]1CCCN1C(=O)[C@@H]1CCCN1C(=O)[C@H](C)NC(=O)CNC(=O)[C@H](CO)NC(=O)[C@H](CO)NC(=O)[C@@H]1CCCN1C(=O)CNC(=O)CNC(=O)[C@H](C)NC(=O)[C@H](CC(C)C)NC(=O)[C@H](CC(C)C)NC(=O)[C@H](Cc1c[nH]c2ccccc12)NC(=O)[C@H](CC(N)=O)NC(=O)[C@@H](NC(=O)[C@H](Cc1ccccc1)NC(=O)[C@H](CCC(=O)O)NC(=O)C(C)(C)NC(=O)[C@H](C)NC(=O)[C@H](C)NC(=O)[C@H](CCC(N)=O)NC(=O)[C@H](CCCCN)NC(=O)[C@H](CC(=O)O)NC(=O)[C@H](CC(C)C)NC(=O)[C@H](Cc1ccc(O)cc1)NC(=O)[C@@H](NC(=O)[C@H](CO)NC(=O)[C@H](Cc1ccc(O)cc1)NC(=O)[C@H](CC(=O)O)NC(=O)[C@H](CO)NC(=O)[C@@H](NC(=O)[C@H](Cc1ccccc1)NC(=O)[C@@H](NC(=O)CNC(=O)[C@H](CCC(=O)O)NC(=O)CSCC(=O)NCCN1CC(=O)NCC1=O)[C@@H](C)O)[C@@H](C)O)[C@@H](C)CC)C(C)C)C(N)=O)C(=O)O [Compound 25] | > 1000 | 43 | 1 to 10 | 43 | 1 to 10 | 86 | 1 to 10 | 86 | 1 to 10 | – | – | – | – | – | – | – | –
CCCCCCCCCCCCCCCC(=O)N[C@@H](CCC(=O)NCCCC[C@H](NC(=O)[C@H](CO)NC(=O)[C@@H]1CCCN1C(=O)[C@@H]1CCCN1C(=O)[C@@H]1CCCN1C(=O)[C@H](C)NC(=O)CNC(=O)[C@H](CO)NC(=O)[C@H](CO)NC(=O)[C@@H]1CCCN1C(=O)CNC(=O)CNC(=O)[C@H](C)NC(=O)[C@H](CC(C)C)NC(=O)[C@H](CC(C)C)NC(=O)[C@H](Cc1c[nH]c2ccccc12)NC(=O)[C@H](CC(N)=O)NC(=O)[C@@H](NC(=O)[C@H](Cc1ccccc1)NC(=O)[C@H](CCC(=O)O)NC(=O)C(C)(C)NC(=O)[C@H](C)NC(=O)[C@H](C)NC(=O)[C@H](CCC(N)=O)NC(=O)[C@H](CCCCN)NC(=O)[C@H](CC(=O)O)NC(=O)[C@H](CC(C)C)NC(=O)[C@H](Cc1ccc(O)cc1)NC(=O)[C@@H](NC(=O)[C@H](CO)NC(=O)[C@H](Cc1ccc(O)cc1)NC(=O)[C@H](CC(=O)O)NC(=O)[C@H](CO)NC(=O)[C@@H](NC(=O)[C@H](Cc1ccccc1)NC(=O)[C@@H](NC(=O)CNC(=O)[C@H](CCC(=O)O)NC(=O)C(C)(C)NC(=O)CN1CCCCC1=O)[C@@H](C)O)[C@@H](C)O)[C@@H](C)CC)C(C)C)C(N)=O)C(=O)O [Compound 209] | 10 to 1000 | – | – | 27 | 10 to 100 | – | – | 94 | < 0.1 | – | – | – | – | – | – | – | –
CC[C@H](C)[C@H](NC(=O)[C@H](CO)NC(=O)[C@H](Cc1ccc(O)cc1)NC(=O)[C@H](CC(=O)O)NC(=O)[C@H](CO)NC(=O)[C@@H](NC(=O)[C@H](Cc1ccccc1)NC(=O)[C@@H](NC(=O)CNC(=O)[C@H](CCC(=O)O)NC(=O)[C@H]1CC[C@@H](C(=O)NCCN2C(=O)CSC2=O)CC1)[C@@H](C)O)[C@@H](C)O)C(=O)N[C@@H](Cc1ccc(O)cc1)C(=O)N[C@@H](CC(C)C)C(=O)N[C@@H](CC(=O)O)C(=O)N[C@@H](CCCCN)C(=O)N[C@@H](CCC(N)=O)C(=O)N[C@@H](C)C(=O)N[C@@H](C)C(=O)NC(C)(C)C(=O)N[C@@H](CCC(=O)O)C(=O)N[C@@H](Cc1ccccc1)C(=O)N[C@H](C(=O)N[C@@H](CC(N)=O)C(=O)N[C@@H](Cc1c[nH]c2ccccc12)C(=O)N[C@@H](CC(C)C)C(=O)N[C@@H](CC(C)C)C(=O)N[C@@H](C)C(=O)NCC(=O)NCC(=O)N1CCC[C@H]1C(=O)N[C@@H](CO)C(=O)N[C@@H](CO)C(=O)NCC(=O)N[C@@H](C)C(=O)N1CCC[C@H]1C(=O)N1CCC[C@H]1C(=O)N1CCC[C@H]1C(=O)N[C@@H](CO)C(=O)N[C@@H](CCCCN)C(N)=O)C(C)C [Compound 182] | > 1000 | – | 100 to 1000 | – | 100 to 1000 | 96 | 0.1 to 1 | 96 | 0.1 to 1 | 12 | 12 | – | – | – | – | – | –
CCCCCCCCCCCCCCCC(=O)N[C@@H](CCC(=O)NCCCC[C@H](NC(=O)[C@H](CO)NC(=O)[C@@H]1CCCN1C(=O)[C@@H]1CCCN1C(=O)[C@@H]1CCCN1C(=O)[C@H](C)NC(=O)CNC(=O)[C@H](CO)NC(=O)[C@H](CO)NC(=O)[C@@H]1CCCN1C(=O)CNC(=O)CNC(=O)[C@H](C)NC(=O)[C@H](CC(C)C)NC(=O)[C@H](CC(C)C)NC(=O)[C@H](Cc1c[nH]c2ccccc12)NC(=O)[C@H](CC(N)=O)NC(=O)[C@@H](NC(=O)[C@H](Cc1ccccc1)NC(=O)[C@H](CCC(=O)O)NC(=O)C(C)(C)NC(=O)[C@H](C)NC(=O)[C@H](C)NC(=O)[C@H](CCC(N)=O)NC(=O)[C@H](CCCCN)NC(=O)[C@H](CC(=O)O)NC(=O)[C@H](CC(C)C)NC(=O)[C@H](Cc1ccc(O)cc1)NC(=O)[C@@H](NC(=O)[C@H](CO)NC(=O)[C@H](Cc1ccc(O)cc1)NC(=O)[C@H](CC(=O)O)NC(=O)[C@H](CO)NC(=O)[C@@H](NC(=O)[C@H](Cc1ccccc1)NC(=O)[C@@H](NC(=O)CNC(=O)[C@H](CCC(=O)O)NC(=O)CSCC(=O)NCCN1CCC(C)(C)C1=O)[C@@H](C)O)[C@@H](C)O)[C@@H](C)CC)C(C)C)C(N)=O)C(=O)O [Compound 35] | – | 20 to 37 | – | 20 to 37 | – | 110 | – | 110 | – | – | – | > 1000 | 1 to 10 | 1 to 100 | 0.1 to 1 | 0.1 to 1 | –
CC[C@H](C)[C@H](NC(=O)[C@H](CO)NC(=O)[C@H](Cc1ccc(O)cc1)NC(=O)[C@H](CC(=O)O)NC(=O)[C@H](CO)NC(=O)[C@@H](NC(=O)[C@H](Cc1ccccc1)NC(=O)[C@@H](NC(=O)CNC(=O)[C@H](CCC(=O)O)NC(=O)C(C)(C)C(=O)NCCCCN1C(=O)c2ccccc2C1=O)[C@@H](C)O)[C@@H](C)O)C(=O)N[C@@H](Cc1ccc(O)cc1)C(=O)N[C@@H](CC(C)C)C(=O)N[C@@H](CC(=O)O)C(=O)N[C@@H](CCCCN)C(=O)N[C@@H](CCC(N)=O)C(=O)N[C@@H](C)C(=O)N[C@@H](C)C(=O)NC(C)(C)C(=O)N[C@@H](CCC(=O)O)C(=O)N[C@@H](Cc1ccccc1)C(=O)N[C@H](C(=O)N[C@@H](CC(N)=O)C(=O)N[C@@H](Cc1c[nH]c2ccccc12)C(=O)N[C@@H](CC(C)C)C(=O)N[C@@H](CC(C)C)C(=O)N[C@@H](C)C(=O)NCC(=O)NCC(=O)N1CCC[C@H]1C(=O)N[C@@H](CO)C(=O)N[C@@H](CO)C(=O)NCC(=O)N[C@@H](C)C(=O)N1CCC[C@H]1C(=O)N1CCC[C@H]1C(=O)N1CCC[C@H]1C(=O)N[C@@H](CO)C(=O)N[C@@H](CCCCN)C(N)=O)C(C)C [Compound 141] | – | 46 to 50 | – | 46 to 50 | – | 98 to 100 | – | 98 to 100 | – | – | – | > 1000 | 10 to 100 | – | 1 to 10 | 1 to 10 | 10 to 100
